Experimental data: patent US10266495B2, “Phenyl quinolinone derivatives as mutant-isocitrate dehydrogenase inhibitors” (FORMA TM2, Inc., priority 2014, dated 2019)
Where two headings read alike, the source gives them in different places.

Target: IDH1-R132H recombinant protein (Homo sapiens, UniProt O75874, R132H)
Assay: IDH1-R132H enzymatic assay (NADPH consumption, diaphorase/resazurin readout)
Type: biochemical
Protocol: Assays were performed in a 384-well black plate. An aliquot of 250 nL of compound was incubated with 10 μL of 30 nM IDH1-R132H or 10 nM IDH1-R132C recombinant protein in assay buffer (50 mM Tris pH=7.5, 150 mM NaCl, 5 mM MgCl2, 0.1% (w/v) Bovine Serum Albumin, and 0.01% Triton X-100) in each well at 25° C. for 15 minutes. After the plate was centrifuged briefly, an aliquot of 10 μL of 2 mM α-ketoglutarate and 20 μM NADPH solution prepared in assay buffer was then added to each well and the reaction was maintained at 25° C. for 45 minutes. An aliquot of 10 μL of diaphorase solution (0.15 U/mL diaphorase and 30 μM Resazurin in assay buffer) was added to each well. […] The IC50 of a given compound was calculated by fitting the dose response curve of inhibition of NADPH consumption at a given concentration with the four parameter logistic equation.

[1] = read-out: Enzyme IDH1 R132H IC50 Range

Sequence of IDH1-R132H recombinant protein (O75874 whole entry R132H): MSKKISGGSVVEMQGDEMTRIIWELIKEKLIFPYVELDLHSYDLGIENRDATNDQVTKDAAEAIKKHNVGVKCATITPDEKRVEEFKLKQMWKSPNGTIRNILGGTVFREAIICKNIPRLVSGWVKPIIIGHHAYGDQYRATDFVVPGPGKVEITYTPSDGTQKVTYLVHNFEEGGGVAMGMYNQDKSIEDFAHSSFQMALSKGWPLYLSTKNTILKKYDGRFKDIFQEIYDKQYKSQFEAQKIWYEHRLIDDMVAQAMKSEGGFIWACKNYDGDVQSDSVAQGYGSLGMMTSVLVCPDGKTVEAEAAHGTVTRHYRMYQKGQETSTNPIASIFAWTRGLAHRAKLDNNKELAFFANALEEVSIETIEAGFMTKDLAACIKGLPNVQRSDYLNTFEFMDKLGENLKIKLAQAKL

Row | SMILES | IC50 [1] [nM] | IC50 [nM]
1 | COc1cc(N[C@H](C)c2cc3cc(Cl)ccc3[nH]c2=O)ccc1C#N [Compound I-3, 4-{[(1R)-1-(6-chloro-2-oxo-1,2-dihydroquinolin-3-yl)ethyl]amino}-2-methoxybenzonitrile] | > 1000 | 
2 | C[C@H](Nc1ccc(C#N)cc1S(C)(=O)=O)c1cc2cc(Cl)ccc2[nH]c1=O [Compound I-4, 4-{[(1S)-1-(6-chloro-2-oxo-1,2-dihydroquinolin-3-yl)ethyl]amino}-3-methanesulfonylbenzonitrile] | > 1000 | 
3 | COc1cc(N[C@@H](C)c2cc3cc(Cl)ccc3[nH]c2=O)ccc1S(C)(=O)=O [Compound I-6, 6-chloro-3-[(1S)-1-[(4-methanesulfonyl-3-methoxyphenyl)amino]ethyl]-1,2-dihydroquinolin-2-one] | > 1000 | 
4 | N#Cc1ccc(NCc2cc3cc(Cl)ccc3[nH]c2=O)cc1OCCO [Compound I-11, 4-{[(6-chloro-2-oxo-1,2-dihydroquinolin-3-yl)methyl]amino}-2-(2-hydroxyethoxy)benzonitrile] | 100 to 1000 | 
5 | COc1cc(NCc2cc3cc(Cl)ccc3[nH]c2=O)ccc1-n1ccnc1 [Compound I-12, 6-chloro-3-({[4-(1H-imidazol-1-yl)-3-methoxyphenyl]amino}methyl)-1,2-dihydroquinolin-2-one] | > 1000 | 
6 | CCOc1cc(NCc2cc3cc(Cl)ccc3[nH]c2=O)ccc1C#N [Compound I-13, 4-{[(6-chloro-2-oxo-1,2-dihydroquinolin-3-yl)methyl]amino}-2-ethoxybenzonitrile] | 100 to 1000 | 
7 | N#Cc1ccc(NCc2cc3cc(Cl)ccc3[nH]c2=O)cc1OCC(N)=O [Compound I-14, 2-(5-{[(6-chloro-2-oxo-1,2-dihydroquinolin-3-yl)methyl]amino}-2-cyanophenoxy)acetamide] | > 1000 | 
8 | COc1cc(NCc2cc3cc(Cl)ccc3[nH]c2=O)ccc1S(C)(=O)=O [Compound I-15, 6-chloro-3-{[(4-methanesulfonyl-3-methoxyphenyl)amino]methyl}-1,2-dihydroquinolin-2-one] | > 1000 | 
9 | COc1cc(NCc2cc3cc(C)c(C)cc3[nH]c2=O)ccc1C#N [Compound I-17, 4-{[(6,7-dimethyl-2-oxo-1,2-dihydroquinolin-3-yl)methyl]amino}-2-methoxybenzonitrile] | > 1000 | 
10 | COc1cc(NCc2cc3cc(C)ccc3[nH]c2=O)ccc1-n1cnc(C)c1 [Compound I-18, 3-({[3-methoxy-4-(4-methyl-1H-imidazol-1-yl)phenyl]amino}methyl)-6-methyl-1,2-dihydroquinolin-2-one] | > 1000 | 
11 | Cc1cc2cc(CNc3cccc(S(=O)(=O)NC4=NCCC4)c3)c(=O)[nH]c2cc1C [Compound I-19, N-(3,4-dihydro-2H-pyrrol-5-yl)-3-{[(6,7-dimethyl-2-oxo-1,2-dihydroquinolin-3-yl)methyl]amino}benzene-1-sulfonamide] | > 1000 | 
12 | COc1cc(NCc2cc3cc(C)c(C)cc3[nH]c2=O)ccc1-n1cnnn1 [Compound I-20, 3-({[3-methoxy-4-(1H-1,2,3,4-tetrazol-1-yl)phenyl]amino}methyl)-6,7-dimethyl-1,2-dihydroquinolin-2-one] | 100 to 1000 | 
13 | COc1cc(NCc2cc3cc(Br)ccc3[nH]c2=O)ccc1C#N [Compound I-23, 4-{[(6-bromo-2-oxo-1,2-dihydroquinolin-3-yl)methyl]amino}-2-methoxybenzonitrile] | 10 to 100 | 
14 | COc1cc(NCc2cc3cc(I)ccc3[nH]c2=O)ccc1C#N [Compound I-28, 4-{[(6-iodo-2-oxo-1,2-dihydroquinolin-3-yl)methyl]amino}-2-methoxybenzonitrile] | 100 to 1000 | 
15 | COc1cc(NCc2cc3ccc(Cl)cc3[nH]c2=O)ccc1C#N [Compound I-29, 4-{[(7-chloro-2-oxo-1,2-dihydroquinolin-3-yl)methyl]amino}-2-methoxybenzonitrile] | 100 to 1000 | 
16 | COc1cc(NCc2cc3cccnc3[nH]c2=O)ccc1C#N [Compound I-31, 2-methoxy-4-{[(2-oxo-1,2-dihydro-1,8-naphthyridin-3-yl)methyl]amino}benzonitrile] | > 1000 | 
17 | COc1cc(C#N)ccc1NCc1cc2cc(Cl)ccc2[nH]c1=O [Compound I-34, 4-{[(6-chloro-2-oxo-1,2-dihydroquinolin-3-yl)methyl]amino}-3-methoxybenzonitrile] | 100 to 1000 | 
18 | N#Cc1ccc(NCc2cc3cc(Cl)ccc3[nH]c2=O)cc1C(F)(F)F [Compound I-35, 4-{[(6-chloro-2-oxo-1,2-dihydroquinolin-3-yl)methyl]amino}-2-(trifluoromethyl)benzonitrile] |  | 100 to 1000
19 | N#Cc1ccc(NCc2cc3cc(Cl)ccc3[nH]c2=O)cc1F [Compound I-37, 4-{[(6-chloro-2-oxo-1,2-dihydroquinolin-3-yl)methyl]amino}-2-fluorobenzonitrile] |  | 100 to 1000
20 | O=c1[nH]c2ccc(Cl)cc2cc1CNc1ccc(-n2ccnc2)cc1 [Compound I-39, 6-chloro-3-({[4-(1H-imidazol-1-yl)phenyl]amino}methyl)-1,2-dihydroquinolin-2-one] | > 1000 | 

Row | SMILES | IC50 [1] [nM] | IC50 [nM]
21 | NC(=O)c1ccccc1NCc1cc2cc(Cl)ccc2[nH]c1=O [Compound I-40, 2-{[(6-chloro-2-oxo-1,2-dihydroquinolin-3-yl)methyl]amino}benzamide] | > 1000 | 
22 | COc1cc(NCc2cc3cc(Cl)ccc3[nH]c2=O)ccc1F [Compound I-41, 6-chloro-3-{[(4-fluoro-3-methoxyphenyl)amino]methyl}-1,2-dihydroquinolin-2-one] | > 1000 | 
23 | CNC(=O)c1ccc(NCc2cc3cc(Cl)ccc3[nH]c2=O)cc1 [Compound I-42, 4-{[(6-chloro-2-oxo-1,2-dihydroquinolin-3-yl)methyl]amino}-N-methylbenzamide] | > 1000 | 
24 | NC(=O)COc1ccc(NCc2cc3cc(Cl)ccc3[nH]c2=O)cc1 [Compound I-43, 2-(4-{[(6-chloro-2-oxo-1,2-dihydroquinolin-3-yl)methyl]amino}phenoxy)acetamide] | > 1000 | 
25 | COc1cc(NCc2cc3cc(Cl)ccc3[nH]c2=O)ccc1Cl [Compound I-44, 6-chloro-3-{[(4-chloro-3-methoxyphenyl)amino]methyl}-1,2-dihydroquinolin-2-one] | > 1000 | 
26 | N#CCc1cccc(NCc2cc3cc(Cl)ccc3[nH]c2=O)c1 [Compound I-45, 2-(3-{[(6-chloro-2-oxo-1,2-dihydroquinolin-3-yl)methyl]amino}phenyl)acetonitrile] | > 1000 | 
27 | O=c1[nH]c2ccc(Cl)cc2cc1CNc1ccccc1F [Compound I-46, 6-chloro-3-{[(2-fluorophenyl)amino]methyl}-1,2-dihydroquinolin-2-one] | > 1000 | 
28 | COc1cc(NCc2cc3ccccc3[nH]c2=O)ccc1-n1cnnn1 [Compound I-48, 3-({[3-methoxy-4-(1H-1,2,3,4-tetrazol-1-yl)phenyl]amino}methyl)-1,2-dihydroquinolin-2-one] | > 1000 | 
29 | O=c1[nH]c2ccccc2cc1CNc1ccc(-n2cnnn2)cc1 [Compound I-49, 3-({[4-(1H-1,2,3,4-tetrazol-1-yl)phenyl]amino}methyl)-1,2-dihydroquinolin-2-one] | > 1000 | 
30 | COc1cc(NCc2cc3cc(C)ccc3[nH]c2=O)ccc1C#N [Compound I-50, 2-methoxy-4-{[(6-methyl-2-oxo-1,2-dihydroquinolin-3-yl)methyl]amino}benzonitrile] | 100 to 1000 | 
31 | Cc1cc2cc(CNc3ccc(-n4cnnn4)cc3)c(=O)[nH]c2cc1C [Compound I-51, 6,7-dimethyl-3-({[4-(1H-1,2,3,4-tetrazol-1-yl)phenyl]amino}methyl)-1,2-dihydroquinolin-2-one] | > 1000 | 
32 | COc1ccc2[nH]c(=O)c(CNc3ccc(C#N)c(OC)c3)cc2c1 [Compound I-52, 2-methoxy-4-{[(6-methoxy-2-oxo-1,2-dihydroquinolin-3-yl)methyl]amino}benzonitrile] | 100 to 1000 | 
33 | COc1ccc2[nH]c(=O)c(CNc3ccc(-n4ccnc4)cc3)cc2c1 [Compound I-53, 3-({[4-(1H-imidazol-1-yl)phenyl]amino}methyl)-6-methoxy-1,2-dihydroquinolin-2-one] | > 1000 | 
34 | COc1cc(NCc2cc3ccc(C)cc3[nH]c2=O)ccc1C#N [Compound I-54, 2-methoxy-4-{[(7-methyl-2-oxo-1,2-dihydroquinolin-3-yl)methyl]amino}benzonitrile] | 100 to 1000 | 
35 | CCOc1ccc2[nH]c(=O)c(CNc3ccc(C#N)c(OC)c3)cc2c1 [Compound I-55, 4-{[(6-ethoxy-2-oxo-1,2-dihydroquinolin-3-yl)methyl]amino}-2-methoxybenzonitrile] | 100 to 1000 | 
36 | COc1ccc2cc(CNc3ccc(C#N)c(OC)c3)c(=O)[nH]c2c1 [Compound I-56, 2-methoxy-4-{[(7-methoxy-2-oxo-1,2-dihydroquinolin-3-yl)methyl]amino}benzonitrile] | 100 to 1000 | 
37 | COc1cc(NCc2cc3cc(Cl)c(O)cc3[nH]c2=O)ccc1C#N [Compound I-57, 4-{[(6-chloro-7-hydroxy-2-oxo-1,2-dihydroquinolin-3-yl)methyl]amino}-2-methoxybenzonitrile] | 10 to 100 | 
38 | COc1cc(NCc2cc3cc(Cl)c(OCc4ccnc(C)c4)cc3[nH]c2=O)ccc1C#N [Compound I-73, 4-[({6-chloro-7-[(2-methylpyridin-4-yl)methoxy]-2-oxo-1,2-dihydroquinolin-3-yl}methyl)amino]-2-methoxybenzonitrile] | 10 to 100 | 
39 | CCOCCOc1cc2[nH]c(=O)c(CNc3ccc(C#N)c(OC)c3)cc2cc1Cl [Compound I-93, 4-({[6-chloro-7-(2-ethoxyethoxy)-2-oxo-1,2-dihydroquinolin-3-yl]methyl}amino)-2-methoxybenzonitrile] | 100 to 1000 | 
